From patent EP0840727B1, “3-HYDROXY-2(1H)-[…] AGENTS” (priority 1995, dated 1997)
Marks after values point to notes of the source that are not given here.

Experiments:
Type in all cases: in vivo
[1] = Promoting excretion of 238Pu(IV) in mice by orally administered ligands; details: of ligand by gavage three minutes after iv ^238Pu(IV); kill at 24 hours
Source text: (§1) Animal studies were completed using methods detailed in Radiation Protection Dosimetry, in press, P. W. Durbin et al., "In Vivo Chelation of Am(III), Pu(IV), Np(V) and U(VI) in Mice by TREN-(Me-3,2-HOPO)"; Radiation Protection Dosimetry, 17, No. 1, 1989, p. 351, P. W. Durbin et al., "Removal of ^238Pu(IV) from Mice by Polycatechoylate, -Hydroxamate or -Hydroxypyridinonate Ligands"; Radiation Research, 99, 1984, p. 85, P. W. Durbin et al., "Specific Sequestering Agents for the Actinides ..."; Radiation Research, 99, 1984, p. 106, P. W. Durbin et al., "Removal of Pu and Am from Beagles and Mice ..."; Radiation Research, 81, 1980, p. 170, R. D. Lloyd et al., and P. W. Durbin et al., "Specific Sequestering Agents for the Actinides ...". The foregoing articles are hereby incorporated by reference.
Radionuclides used in the animal studies came from a variety of sources. However, they can be purchased commercially. […]
The novel chelating agents of the present invention and comparative compounds were tested for their effectiveness in promoting excretion of ^238Pu(IV) by oral administration to mice as follows. […] The ^238Pu(IV) in skeleton, soft tissues, and separated excreta was determined by counting the ^234U L x-rays. […]

[2] = Promoting excretion of 241Am(III) in mice by injected ligand
Source text: as §1
(§2) Radionuclides used in the animal studies came from a variety of sources. However, they can be purchased commercially. The ^238Pu(IV) citrate and ^241Am(III) citrate solutions were prepared for animal injection by 8- to 10-fold dilution with 0.14M NaCl (pH 4) of concentrated stock solutions (0.08M sodium citrate buffer) that had been held in frozen storage at Lawrence Berkeley Laboratory (hereinafter LBL) for several years. [The ^238Pu(IV) was originally obtained from D. R. Atherton at the University of Utah Radiobiology Laboratory, Salt Lake City. The ^241Am(III) solution had been obtained many years earlier from the LBL Actinide Chemistry group.]
(§3) One of the comparative chelating agents TREN-Me-3,2-HOPO, was also tested for effectiveness in promoting excretion of ^241Am(III), ^237Np(V), and ^232U(VI) by injection into mice, as follows: Mice, in groups of five, each received an intravenous injection of (a) 1100 Bq of ^241AM(III) in 0.2 mL of citrate buffer, (b) 150 Bq of ^232UO2Cl2 plus 3.6 mg of ^235UO2Cl2 in 0.2 mL of saline, or (c) 200 Bq of ^237NpO2Cl (7.5 mg of ^237NpO2Cl) in 0.2 mL of saline. Three to five minutes later, […] of TREN-Me-3,2-HOPO was injected intraperitoneally in 0.5 mL of saline. The mice were killed 24 hours after the actinide injection, frozen, and dissected after partial thawing. The skeleton, soft tissues, and separated excreta were radioanalyzed by counting the ^241Am gamma rays, or the alpha particles emitted by ^237Np or ^232U (and its ingrowing daughters). Removal of those actinides from mice by injected TREN-Me-3,2-HOPO is summarized in Table 5, which also includes data for mice similarly treated with CaNa3-DTPA and for actinide-injected controls. […] The structure of Am(III)-TREN-Me-3,2-HOPO is considered to resemble that of the Gd(III) complexes (see example 20). Complexation of the fraction of Np(V) that is reduced in vivo to Np(IV) is considered to resemble that of Pu(IV). Complexation of U(VI) is considered to take place through binding to UO2^2+.

[3] = Promoting excretion of 237Np(V) in mice by injected ligand
Source text: as §1
The ^237Np(V) was obtained from J. Bucher of the LBL Actinide Chemistry group as NpO2Cl in 0.1 M HCl. It was diluted to the desired radioactivity concentration in 0.14M NaCl and the pH was adjusted to about 4.5 with NaOH just before use.
as §3

[4] = Promoting excretion of 238Pu(IV) in mice by injected ligands; details: ligand 30 µmol kg^-1 ip at 1 h after iv ^238Pu(IV) citrate, kill at 24 h
Source text: as §1, §2
The novel chelating agents of the present invention and comparative compounds were tested for their effectiveness in promoting excretion ^238Pu(IV) in nice by injected ligands as follows. Mice, in groups of five, each received an intravenous injection of 1850 Bq ^238Pu(IV) in 0.2 mL of citrate buffer. One hour later, 30 µmol/kg of ligand was injected intraperitoneally in 0.5 mL of saline. The mice were killed 24 hours after the Pu injection, frozen, and dissected after partial thawing. The ^238Pu in skeleton, soft tissues, and separated excreta was determined by counting the ^234U L x-rays. Results of removal of ^238Pu(IV) from mice by injected ligands are summarized in Table 3, which also includes data for CaNa3-DTPA and other reference ligands and the Pu-injected controls. […] While the case of multidente 1,2-HOPO and catechoylamide chelating agents, octadentates are always better chelating agents than the corresponding hexadentates and tetradentates.

[5] = Am(III), ligand 30 mmol.kg-1 i.p at 3 to 5 min after actinide i.v., kill at 24 h
[6] = Am(III), ligand 30 mmol.kg-1 i.p at 3 to 5 min after actinide i.v., kill at 24 h, pooled
[7] = Np(V), ligand 30 mmol.kg-1 i.p at 3 to 5 min after actinide i.v., kill at 24 h
[8] = Np(V), ligand 30 mmol.kg-1 i.p at 3 to 5 min after actinide i.v., kill at 24 h, pooled

Cn1ccc(C(=O)NCCN(CCNC(=O)c2ccn(C)c(=O)c2O)CCNC(=O)c2ccn(C)c(=O)c2O)c(O)c1=O [TREN-Me-3,2-HOPO, N,N,N,-Tris[(3-hydroxy-1-methyl-2-oxo-1,2-dihydropyridin-4-yl)carboxamidoethyl]-amine]
Pu removal by oral administration (in words) [1]: the more effective in both (by oral and injection) cases
Am content of tissues compared with controls (in words) ([2]; 30 µmol/kg intraperitoneally three to five minutes after actinide): the Am content of all tissues was greatly reduced
percent of injected actinide ± SD at 24 h, tissues: liver [2, 5]: 1.0 ± 0.6^d,e percent of injected actinide
percent of injected actinide ± SD at 24 h, tissues: skeleton [2, 5]: 8.1 ± 1.6^d percent of injected actinide
percent of injected actinide ± SD at 24 h, tissues: soft tissue [2, 5]: 1.6 ± 0.6^d percent of injected actinide
percent of injected actinide ± SD at 24 h, whole body [2, 5]: 11 ± 1.4^d,e percent of injected actinide
percent of injected actinide at 24 h, excreta: feces and GI contents [2, 6]: 38% of injected actinide
percent of injected actinide at 24 h, excreta: urine 0-24 h [2, 6]: 51% of injected actinide
percent of injected actinide at 24 h, tissues: kidneys [2, 6]: 0.2% of injected actinide
percent of injected actinide ± SD at 24 h, tissues: skeleton [3, 7]: 34 ± 4.5% of injected actinide
percent of injected actinide ± SD at 24 h, tissues: soft tissue [3, 7]: 3.1 ± 1.1% of injected actinide
percent of injected actinide ± SD at 24 h, whole body [3, 7]: 42 ± 11^d,e percent of injected actinide
percent of injected actinide at 24 h, excreta: feces and GI contents [3, 8]: 17% of injected actinide
percent of injected actinide at 24 h, excreta: urine 0-24 h [3, 8]: 40% of injected actinide
percent of injected actinide at 24 h, tissues: kidneys [3, 8]: 1.0% of injected actinide
Np content of the soft tissues compared with controls (in words) ([3]; intraperitoneally three to five minutes after actinide): the Np content of the soft tissues was significantly reduced
percent of injected ^238Pu ± SD at 24 h, tissues: liver [4]: 5.0 ± 2.2^d percent of injected ^238Pu
percent of injected ^238Pu ± SD at 24 h, tissues: skeleton [4]: 10 ± 1.1% of injected ^238Pu
percent of injected ^238Pu ± SD at 24 h, tissues: soft tissue [4]: 2.5 ± 0.8% of injected ^238Pu
percent of injected ^238Pu ± SD at 24 h, whole body [4]: 18 ± 2.7^d percent of injected ^238Pu
percent of injected ^238Pu at 24 h, excreta: feces and GI contents ([4]; pooled samples): 43.3% of injected ^238Pu
percent of injected ^238Pu at 24 h, excreta: urine 0-24 h ([4]; pooled samples): 37% of injected ^238Pu
percent of injected ^238Pu at 24 h, tissues: kidneys ([4]; pooled samples): 0.6% of injected ^238Pu
